{
  "source": "paper PMC10298926",
  "about": "“Biophysical Characterization of the Binding Mechanism between the MATH Domain of SPOP and Its Physiological Partners” (International Journal of Molecular Sciences, 2023)",
  "key": {"SPOP MATH WT [1]": {"target": "T1, SPOP MATH WT (Homo sapiens, UniProt O43791)", "T1 sequence (O43791 1-182)": "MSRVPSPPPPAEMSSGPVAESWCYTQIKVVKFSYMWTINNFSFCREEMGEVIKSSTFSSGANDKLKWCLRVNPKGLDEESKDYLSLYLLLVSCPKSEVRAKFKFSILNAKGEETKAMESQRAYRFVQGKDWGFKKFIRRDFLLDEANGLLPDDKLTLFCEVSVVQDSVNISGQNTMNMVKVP", "experiment": "Stopped-flow displacement", "format": "binding", "settings": "preincubated complex (both 8 µM) mixed with 50 μM nondansylated peptide, 298 K, average of five single traces", "procedure": "To infer the mechanism of recognition of SPOP MATH, we resorted to performing time-resolved kinetic experiments. SPOP MATH was rapidly mixed with increasing concentrations of dansylated peptides (from 2 to 10 µM for Puc and MacroH2A, and from 2 to 40 µM for PTEN) in a stopped-flow apparatus at 298 K. The binding traces obtained by monitoring the time-resolved fluorescence were satisfactorily fitted to a single exponential equation, allowing calculating the observed rate constants kobs at different peptide concentrations. We then plotted the kobs values over the concentration of dansylated peptide and fitted the data to a simple linear function equation: kobs=kon Peptide+koff where kobs is the observed rate constant; kon and koff are the microscopic association and dissociation rate constants, respectively (Figure 2). The slope and y-axis intercept represent the microscopic association and dissociation rate constant, respectively. To minimize the error associated with the indirect measurement of the dissociation rate constant, we carried out displacement experiments to determine the koff values. The displacement experiments were designed by mixing the preformed complex SPOP MATH-dansylated peptides with a high excess of nondansylated peptide, as described in the Section 4. […] On the basis of these observations, it is possible to conclude that, in the case of binding to MacroH2A and PTEN, there is the presence of an additional step, which escapes detection by stopped-flow experiments and is likely to be negligible in the case of Puc. […] We note that such a case closely resembles the presence of a so-called burst phase, which is frequently observed in protein-folding studies.\nMicroscopic dissociation rate constants (koff) were directly measured by performing displacement experiments on an Applied Photophysics DX-17MV stopped-flow apparatus (Applied Photophysics). […] The samples were excited at 280 nm and fluorescence emission was collected by using a 330 ± 30 nm bandpass filter. […] The observed rate constants were calculated from the average of five single traces. […]"}, "SPOP MATH Y125A": {"target": "SPOP MATH Y125A (Homo sapiens, UniProt O43791, Y123A, form not given)", "sequence (O43791 1-182 Y123A, form open)": "as the sequence (O43791 1-182) above, with Y123A counted along it", "experiment": "Stopped-flow displacement", "format": "binding", "settings": "displacement of dansylated Puc, 298 K", "from_the_text": "(§1) To quantitatively address the role of specific residues in the binding mechanism of SPOP MATH, we resorted to taking advantage of the site-directed mutagenesis and generated ten site-directed mutants corresponding to the residues located in the binding pocket of the SPOP MATH domain. In particular, we produced a set of single mutants where residues R71, Y88, F103, Y124, F125, K130, D131, W132, F134, and K135 were substituted with alanine.\n(§2) Microscopic dissociation rate constants (koff) were directly measured by performing displacement experiments on an Applied Photophysics DX-17MV stopped-flow apparatus (Applied Photophysics). A preincubated complex of MATH domain and dansylated peptides at a constant concentration (both 8 µM) was rapidly mixed with an excess of nondansylated peptides (50 μM). The samples were excited at 280 nm and fluorescence emission was collected by using a 330 ± 30 nm bandpass filter. The experiments were performed at 298 K in the same buffer used for the binding experiments. The observed rate constants were calculated from the average of five single traces. The observed kinetics were consistent with a single exponential decay."}, "SPOP MATH D131A": {"target": "T2, SPOP MATH D131A (Homo sapiens, UniProt O43791, C159S/C23S/C44S/C68S/C93S/D130A)", "T2 construct": "engineered MATH domain of SPOP protein (residues 1–182); His-tag; made in house; host or cells: Escherichia coli BL21 (DE3)", "T2 sequence (O43791 1-182 C23S/C44S/C68S/C93S/D130A/C159S)": "as the sequence (O43791 1-182) above, with C23S, C44S, C68S, C93S, D130A, C159S counted along it", "experiment": "Stopped-flow displacement", "format": "binding", "from_the_text": "as §1, §2"}, "SPOP MATH K130A": {"target": "T3, SPOP MATH K130A (Homo sapiens, UniProt O43791, C159S/C23S/C44S/C68S/C93S/K129A)", "T3 construct": "engineered MATH domain of SPOP protein (residues 1–182); His-tag; made in house; host or cells: Escherichia coli BL21 (DE3)", "T3 sequence (O43791 1-182 C23S/C44S/C68S/C93S/K129A/C159S)": "as the sequence (O43791 1-182) above, with C23S, C44S, C68S, C93S, K129A, C159S counted along it", "experiment": "Stopped-flow displacement", "format": "binding", "from_the_text": "as §1, §2"}, "SPOP MATH K135A": {"target": "T4, SPOP MATH K135A (Homo sapiens, UniProt O43791, C159S/C44S/C68S/C93S/K134A)", "T4 construct": "engineered MATH domain of SPOP protein (residues 1–182); His-tag; made in house; host or cells: Escherichia coli BL21 (DE3)", "T4 sequence (O43791 1-182 C44S/C68S/C93S/K134A/C159S)": "as the sequence (O43791 1-182) above, with C44S, C68S, C93S, K134A, C159S counted along it", "experiment": "Stopped-flow displacement", "format": "binding", "settings": "displacement of dansylated Puc, 298 K", "from_the_text": "as §1, §2"}, "SPOP MATH WT [2]": {"target": "T1, SPOP MATH WT", "experiment": "Equilibrium binding, FRET (Trp to dansyl), fluorescence titration", "settings": "read-out: Equilibrium KD; dansylated peptide 0 to 40 µM; constant SPOP MATH WT (2 µM in methods, 1 µM in results); excitation 280 nm, emission 300-400 nm; 298 K; hyperbolic fit", "from_the_text": "The MATH domain of SPOP exerts its functions by specifically recognizing different substrates and, therefore, acting as an adaptor module between SPOP and its physiological ligands. In an effort to provide a complete characterization of SPOP MATH binding mechanisms, we investigated the recognition of three peptides mimicking a specific region of the substrates Puc (region 96–105), MacroH2A (region 166–179), and PTEN (region 354–368). […] Moreover, the three-dimensional structure of SPOP MATH in complexes with each of the peptides has been previously reported (3HQH, 3HQL, and 4OV1 PDB entries, respectively). Similar to previous work on other protein–protein recognition modules, we employed peptides carrying a covalently attached N-terminal dansyl fluorophore. Binding was then followed by measuring the FRET (Forster resonance energy transfer) between the three tryptophan residues of the SPOP MATH domain (donor) and the dansyl group of the peptides (acceptor).\nTo address the equilibrium binding affinity of SPOP MATH and its substrates, a fixed concentration of the protein (1 µM) was challenged with increasing peptide concentrations. In all cases, the fluorescence-monitored transition returned a hyperbolic behavior as described in the Section 4, which allowed estimating a dissociation constant of 1.4 ± 0.4 µM, 1.6 ± 0.2 µM, and 5.5 ± 0.5 µM for Puc, MacroH2A, and PTEN, respectively (Figure 2). These values appear partly consistent with what was previously reported by Zhuang et al. by using surface plasmon resonance. […]\nEquilibrium binding experiments were performed on a Fluoromax-4 single-photon-counting spectrofluorometer (Jobin-Yvon, Newark, NJ, USA). The SPOP MATH domain was excited at 280 nm and emission spectra were recorded between 300 and 400 nm, at increasing dansylated peptide concentrations. […]"}},
  "note": "Where a SMILES comes first, the peptide text is derived from it.",
  "data": [
    {"compound": "CC(C)[C@H](NC(=O)[C@H](CCC(=O)O)NC(=O)[C@H](CC(=O)O)NS(=O)(=O)c1cccc2c(N(C)C)cccc12)C(=O)N[C@H](C(=O)N[C@@H](CO)C(=O)N[C@H](C(=O)N[C@H](C(=O)N[C@@H](CO)C(=O)N[C@@H](CO)C(=O)N[C@@H](CO)C(=O)O)[C@@H](C)O)[C@@H](C)O)[C@@H](C)O", "note": "[Puc] (HELM PEPTIDE1{[CN(C)c1cccc2c(S(=O)(=O)[*:2])cccc12].D.E.V.T.S.T.T.S.S.S}$$$$V2.0)", "values": [
      {"measurement": "koff", "setting": "SPOP MATH WT [1]", "result": "26.1 ± 0.1", "unit": "s⁻¹"},
      {"measurement": "koff", "setting": "SPOP MATH Y125A", "result": "78.0 ± 0.2", "unit": "s⁻¹"},
      {"measurement": "koff", "setting": "SPOP MATH D131A", "result": "241 ± 1", "unit": "s⁻¹"},
      {"measurement": "koff", "setting": "SPOP MATH K130A", "result": "123 ± 16", "unit": "s⁻¹"},
      {"measurement": "koff", "setting": "SPOP MATH K135A", "result": "45.2 ± 0.4", "unit": "s⁻¹"},
      {"measurement": "Kd", "setting": "SPOP MATH WT [2]", "result": "1400 ± 500", "unit": "nM"}
    ]}
  ]
}
